pIC50: −log10 of the molar value.
System: T1, IRAK1/4 human
T1 construct: fused on or other part: His tag and TEV cleavage site at the N-terminus
Test: IRAK1/4 phosphorylation IC50 (enzymatic assay, table 2)
Type: biochemical
Details: human IRAK1/4 phosphorylation
How it was run: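 Inhibition values are IC50s. They come from 384-well reactions in which His-TEV-tagged human IRAK-1 or IRAK-4 (the latter with STK1-biotin peptide) met ATP and compounds in DMSO at 20 µM to 1 nM. The buffer was 50 mM Hepes pH7.0 containing MgCl2, DTT, EGTA and BSA, and incubation lasted 2 or 3 hours.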

Row | Structure (SMILES) | pIC50
1 | CC(C)Cc1ccc2[nH]nc(-c3cn(-c4ccc(C(=O)N5CCC(N(C)C)CC5)cc4)nn3)c2c1 [Example 139, 1-{4-[4(5-isobutyl-1H-indazol-3-yl)-1H-1,2,3-triazol-1-yl]benzoyl}-N,N-dimethylpiperidin-4-amine] | 6.00 to 7.00
2 | CN1C2CCC1CC(n1cc(-n3cc(-c4n[nH]c5ccccc45)nn3)cn1)C2 (centres unmarked) [Example 140, 3-{1-[1-(8-methyl-8-azabicyclo[3.2.1]oct-3-yl)-1H-pyrazol-4-yl]-1H-1,2,3-triazol-4-yl}-1H-indazole] | > 7.00
3 | COC(=O)c1ccc2[nH]nc(-c3cn(-c4ccc(CN5CCOCC5)cc4)nn3)c2c1 [Example 142, methyl 3-{1-[4-(morpholin-4-ylmethyl)phenyl]-1H-1,2,3-triazol-4-yl}-1H-indazole-5-carboxylate] | 6.00 to 7.00
4 | CN1CCC(NC(=O)c2ccc3[nH]nc(-c4cn(-c5ccc(CN6CCOCC6)cc5)nn4)c3c2)CC1 [Example 143, N-(1-methylpiperidin-4-yl)-3-{1-[4-(morpholin-4-ylmethyl)phenyl]-1H-1,2,3-triazol-4-yl}-1H-indazole-5-carboxamide] | 6.00 to 7.00
5 | O=C(c1ccc(-n2cc(-c3n[nH]c4ccc(Cn5nc(-c6ccc(O)cc6)ccc5=O)cc34)nn2)cc1)N1CCOCC1 [Example 144, 6-(4-hydroxyphenyl)-2-[(3-{1-[4-(morpholin-4-ylcarbonyl)phenyl]-1H-1,2,3-triazol-4-yl}-1H-indazol-5-yl)methyl]pyridazin-3(2H)-one] | > 7.00
6 | O=C(c1ccc(-n2cc(-c3n[nH]c4cc(C#CCO)ccc34)nn2)cc1)N1CCOCC1 [Example 146, 3-(3-{1-[4-(morpholin-4-ylcarbonyl)phenyl]-1H-1,2,3-triazol-4-yl}-1H-indazol-6-yl)prop-2-yn-1-ol] | 6.00 to 7.00
7 | O=C(c1ccc(-n2cc(-c3n[nH]c4cc(CCCO)ccc34)nn2)cc1)N1CCOCC1 [Example 147, 3-(3-{1-[4-(morpholin-ylcarbonyl)phenyl]-1H-1,2,3-triazol-4-yl}-1H-indazol-6-yl)propan-1-ol] | 6.00 to 7.00
8 | CN1CCCC(Nc2ccc3[nH]nc(-c4cn(-c5ccc(C(=O)N6CCOCC6)cc5)nn4)c3c2)C1 (centres unmarked) [Example 148, N-(1-methylpiperidin-3-yl)-3-{1-[4-(morpholin-4-ylcarbonyl)phenyl]-1H-1,2,3-triazol-4-yl}-1H-indazol-5-amine] | > 7.00
9 | CN(C)C1CCN(c2ccc3[nH]nc(-c4cn(-c5ccc(C(=O)N6CCOCC6)cc5)nn4)c3c2)C1 (centres unmarked) [Example 149, N,N-dimethyl-1-(3-{1-[4-(morpholin-4-ylcarbonyl)phenyl]-1H-1,2,3-triazol-4-yl}-1H-indazol-5-yl)pyrrolidin-3-amine] | > 7.00
10 | OC(c1ccc(-n2cc(-c3n[nH]c4ccccc34)nn2)cc1)C(F)(F)F (centres unmarked) [Example 150, 2,2,2-trifluoro-1-{4-[4-(1H-indazol-3-yl)-1H-1,2,3-triazol-1-yl]phenyl}ethanol] | 6.00 to 7.00
11 | O=C(c1ccc(-n2cc(-c3n[nH]c4ccc(OCCCO)cc34)nn2)cc1)N1CCOCC1 [Example 153, 3-[(3-{1-[4-(morpholin-4-ylcarbonyl)phenyl]-1H-1,2,3-triazol-4-yl}-1H-indazol-5-yl)oxy]propan-1-ol] | 6.00 to 7.00
12 | O=C1C[C@H](OCc2ccc3[nH]nc(-c4cn(-c5ccc(C(=O)N6CCOCC6)cc5)nn4)c3c2)CO1 [Example 154, (4S)-4-[(3-{1-[4-(morpholin-4-ylcarbonyl)phenyl]-1H-1,2,3-triazol-4-yl}-1H-indazol-5-yl)methoxy]dihydrofuran-2(3H)-one] | 6.00 to 7.00
13 | O=C(c1ccc(-n2cc(-c3n[nH]c4ccccc34)nn2)cn1)N1CCOCC1 [Example 155] | 6.00 to 7.00
14 | O=C(c1ccc(-n2cc(-c3n[nH]c4ccc(C(F)(F)F)cc34)nn2)cc1)N1CCOCC1 [Example 156] | 6.00 to 7.00
15 | O=C(c1ccc(-n2cc(-c3n[nH]c4ccc(F)cc34)nn2)cc1)N1CCOCC1 [Example 157] | 6.00 to 7.00
16 | CN(C)C1CCN(C(=O)c2ccc(-n3cc(-c4n[nH]c5ccc(C(F)(F)F)cc45)nn3)cc2)CC1 [Example 159] | 6.00 to 7.00
17 | CC1CN(C(=O)c2ccc(-n3cc(-c4n[nH]c5ccccc45)nn3)cc2)CCO1 (centres unmarked) [Example 160] | 6.00 to 7.00
18 | O=C(c1ccc(-n2cc(-c3n[nH]c4ccccc34)nn2)cc1)N1CCOC(CO)C1 (centres unmarked) [Example 161] | 6.00 to 7.00
19 | CC1(C)CN(C(=O)c2ccc(-n3cc(-c4n[nH]c5ccccc45)nn3)cc2)CCO1 [Example 162] | 6.00 to 7.00
20 | CN1CCCC2(CCCN(C(=O)c3ccc(-n4cc(-c5n[nH]c6ccccc56)nn4)cc3)C2)C1=O (centres unmarked) [Example 163] | 6.00 to 7.00
21 | CCOCC1CCCN(C(=O)c2ccc(-n3cc(-c4n[nH]c5ccccc45)nn3)cc2)C1 (centres unmarked) [Example 164] | 6.00 to 7.00

Row | Structure (SMILES) | pIC50
22 | O=C(c1ccc(-n2cc(-c3n[nH]c4ccccc34)nn2)cc1)N1CCCC2(COC2)C1 [Example 165] | 6.00 to 7.00
23 | O=C(c1ccc(-n2cc(-c3n[nH]c4ccccc34)nn2)cc1)N1CCN2CCCC2C1 (centres unmarked) [Example 166] | 6.00 to 7.00
24 | O=C(c1ccc(-n2cc(-c3n[nH]c4ccccc34)nn2)cc1)N1CCOC(CCO)C1 (centres unmarked) [Example 167] | 6.00 to 7.00
25 | COCCC1CN(C(=O)c2ccc(-n3cc(-c4n[nH]c5ccccc45)nn3)cc2)CCO1 (centres unmarked) [Example 168] | 6.00 to 7.00
26 | O=C(Nc1cnn(C2CCNC2)c1)c1ccc(-n2cc(-c3n[nH]c4ccccc34)nn2)cc1 (centres unmarked) [Example 169] | 6.00 to 7.00
27 | O=C(c1ccc(-n2cc(-c3n[nH]c4ccccc34)nn2)cc1)N1CC2(COC2)C1 [Example 170] | 6.00 to 7.00
28 | CN(C(=O)c1ccc(-n2cc(-c3n[nH]c4ccccc34)nn2)cc1)C1CCOCC1 [Example 171] | 6.00 to 7.00
29 | CN(C)C1CCN(C(=O)c2ccc(-n3cc(-c4n[nH]c5ccc(C6=CCCC6)cc45)nn3)cc2)CC1 [Example 172] | 6.00 to 7.00
30 | CN(C)C1CCN(C(=O)c2ccc(-n3cc(-c4n[nH]c5ccc(C6=CCOCC6)cc45)nn3)cc2)CC1 [Example 173] | 6.00 to 7.00
31 | CN(C)C1CCN(C(=O)c2ccc(-n3cc(-c4n[nH]c5ccc(C6=CCCCC6)cc45)nn3)cc2)CC1 [Example 174] | 6.00 to 7.00
32 | Cc1cccc2[nH]nc(-c3cn(-c4ccc(C(=O)N5CCOCC5)cc4)nn3)c12 [Example 175] | 5.30 to 6.00
33 | O=C(Nc1cnn(CCc2ccncc2)c1)c1ccc(-n2cc(-c3n[nH]c4ccccc34)nn2)cc1 [Example 176] | 6.00 to 7.00
34 | O=C(c1ccc(-n2cc(-c3n[nH]c4ccc(Cn5nc(-c6cccnc6)ccc5=O)cc34)nn2)cc1)N1CCOCC1 [Example 177] | > 7.00
35 | CN(C)C1CCN(C(=O)c2ccc(-n3cc(-c4n[nH]c5ccc(C6CCOCC6)cc45)nn3)cc2)CC1 [Example 178] | 6.00 to 7.00
36 | CN(C)C1CCN(C(=O)c2ccc(-n3cc(-c4n[nH]c5ccc(C6CCCCC6)cc45)nn3)cc2)CC1 [Example 179] | 6.00 to 7.00
37 | c1ccc2c(-c3cn(-c4cnn(CCN5CCOCC5)c4)nn3)n[nH]c2c1 [Example 180] | 6.00 to 7.00
38 | COc1cnccc1-c1ccc2[nH]nc(-c3cn(-c4ccc(C(=O)N5CCOCC5)cc4)nn3)c2c1 [Example 181] | 6.00 to 7.00
39 | O=C(c1ccc(-n2cc(-c3n[nH]c4cccc(F)c34)nn2)cc1)N1CCOCC1 [Example 182] | 5.30 to 6.00
40 | CN(C)C1CCN(C(=O)c2ccc(-n3cc(-c4n[nH]c5ccc(C6CCCC6)cc45)nn3)cc2)CC1 [Example 183] | 6.00 to 7.00
41 | Cc1ccc2c(-c3cn(-c4ccc(C(=O)N5CCOCC5)cc4)nn3)n[nH]c2c1 [Example 184] | > 7.00

— patent US9073892B2, “Indazolyl triazol derivatives” (Merck Serono S.A., priority 2010, dated 2015)
